Data reported in US4853209A, “Bone marrow suppressing agents” (The Dow Chemical Company, priority 1987, dated 1989).
Where two headings read alike, the source gives them in different places.

Columns and labels:
[1] = Two hour rat biolocalization of radionuclide compositions (Tables I, II, III); format: in vivo; conditions: 2 h, average of five rats; for Bone/Blood Ratio / Bone/Muscle Ratio: from percent dose per gram; for % Dose in Blood / % Dose in Liver / % Dose in Muscle / % Dose in Skeleton / % Dose in Urine: tail vein
Experimental: A vial is used to prepare the sample for injection. The vial contains 210 mg EDTMP and 140 mg of NaOH such that addition of 6 ml of a 3×10^-4 M Ho-166 solution in 0.1M HCl gave a final pH in the range of 7-8, forming the Ho-166 EDTMP composition. After checking the pH, samples were drawn for injection into Sprague-Dawley rats. Rats were injected with 100 microliters of the solution via a tail vein. Two hours after the injection the rats were killed by cervical dislocation and dissected. The amount of radiation in each tissue was obtained by counting in a NaI well counter and comparing to standards.
The biolocalization of compositions prepared as described in Examples 7, 8, 9 and 10 was determined in rats.
The numbers given in Table I represent the average of the results of five rats per Example.
The biolocalization of the composition prepared as described in Example 12 was determined in rats.
The numbers given in Table II represent the average of the results of testing in three rats.
The biolocalization of compositions prepared as described in Examples 14 and 15 was determined in rats.
The numbers given in Table III represent the average of the results of five rats per Example.

[2] = rabbit, three hours, averaged for 5 rabbits
Experimental: The composition of Example 7 was also evaluated in rabbits. The rabbits were injected with 100-250 microliters of the composition via a cannula placed in the marginal ear vein.
Three hours after injection, a blood sample was taken by cardiac puncture and the animal was then sacrificed by injection of a commercial euthanasia solution.

bone marrow [3] = conditions: normal beagles, various dose levels, weekly blood samples
Experimental: A series of normal beagles was treated with various dose levels of the composition of Example 7. Blood samples were obtained weekly with white blood cell and platelet counts taken to monitor for signs of bone marrow suppression.

[4] = rat
Experimental: Quantitative biodistributions in rats are obtained by injecting 50-100 microliters (μl) of the radionuclide composition into the tail vein of unanesthetized laboratory rats. After a given period of time, the rats are sacrificed by cervical dislocation and various organs and tissues removed. The tissue samples are then rinsed, blotted dry and weighed. The radioactivity in the tissue samples are measured using a NaI scintillation counter in order to determine the biolocalization of the radionuclide.
The numbers given for each Example, with respect to Tables I, II and III represent the percentage of the administered dose which localized in the indicated tissue. The ratio of radioactivity observed in bone relative to other organs was calculated based on the percent dose per gram in the bone and in the particular organ.
A series of rats was injected with the composition of Example 7 and sacrificed in groups of five at various intervals.

bone marrow [5] = conditions: mouse about 20 g, 198 μCi, six days
Experimental: A mouse weighing about 20 g is injected with 198 μCi of a Ho-166 EDTMP composition. After six days, the animal is sacrificed and both femurs and the sternum removed. The same bones are also taken from a nontreated animal (control). The tissues are fixed using standard histochemical procedures and decalcified using formic acid. The tissues are embedded in paraffin, three micron sections cut, placed on glass slides, and stained with hematoxilyn and eosin.

## O=P(O)(O)CN(CCN(CP(=O)(O)O)CP(=O)(O)O)CP(=O)(O)O.[159Gd] [Example 14]
[1]
  Bone/Blood Ratio: 305
  Bone/Muscle Ratio: 577
  % Dose in Blood: 0.15 % Dose
  % Dose in Liver: 0.25 % Dose
  % Dose in Muscle: 0.56 % Dose
  % Dose in Skeleton: 57 % Dose

## O=P(O)(O)CN(CCN(CP(=O)(O)O)CP(=O)(O)O)CCN(CP(=O)(O)O)CP(=O)(O)O.[153Sm] [Example 8]
[1]
  Bone/Blood Ratio: 224
  Bone/Muscle Ratio: 220
  % Dose in Blood: 0.16 % Dose
  % Dose in Liver: 0.27 % Dose
  % Dose in Skeleton: 30 % Dose
  % Dose in Urine: 74 % Dose

## O=P(O)(O)CN(CCN(CCN(CP(=O)(O)O)CP(=O)(O)O)CCN(CP(=O)(O)O)CP(=O)(O)O)CP(=O)(O)O.[153Sm] [Example 10]
[1]
  Bone/Blood Ratio: 80
  Bone/Muscle Ratio: 410
  % Dose in Blood: 0.25 % Dose
  % Dose in Liver: 0.18 % Dose
  % Dose in Skeleton: 28 % Dose
  % Dose in Urine: 65 % Dose

## O=P(O)(O)CN(CCN(CP(=O)(O)O)CP(=O)(O)O)CP(=O)(O)O.[153Sm] [Example 7]
[1]
  Bone/Blood Ratio: 1800
  Bone/Muscle Ratio: 1500
  % Dose in Blood: 0.032 % Dose
  % Dose in Liver: 0.25 % Dose
  % Dose in Skeleton: 58 % Dose
  % Dose in Urine: 49 % Dose
[2]; marginal ear vein
  % Dose in Blood: 0.12 % Dose
  % Dose in Liver: 0.95 % Dose
  % Dose in Skeleton: 66 % Dose
[2]; marginal ear vein, 180 min
  % Dose in Urine: 34 % Dose
[2]
  Bone/Blood Ratio: 900
  Bone/Muscle Ratio: 1200
Bone marrow [3]
  platelet count: dose dependent reduction
  white blood cell count: dose dependent reduction
[4]
  blood clearance: rapid blood clearance
  uptake in bone: rapid uptake in bone
[4]; 1 Hr
  Bone/Blood: 120
  Bone/Muscle: 300
  Percent of the Administered Dose, Blood: 0.5% of the Administered Dose
  Percent of the Administered Dose, Kidneys: 0.47% of the Administered Dose
  Percent of the Administered Dose, Liver: 0.32% of the Administered Dose
  Percent of the Administered Dose, Skeleton: 58% of the Administered Dose
  Percent of the Administered Dose, Urine: 47% of the Administered Dose
[4]; 2 Hrs
  Bone/Blood: 1800
  Bone/Muscle: 1500
  Percent of the Administered Dose, Blood: 0.03% of the Administered Dose
  Percent of the Administered Dose, Kidneys: 0.25% of the Administered Dose
  Percent of the Administered Dose, Liver: 0.25% of the Administered Dose
  Percent of the Administered Dose, Skeleton: 58% of the Administered Dose
  Percent of the Administered Dose, Urine: 49% of the Administered Dose
[4]; 5 Hrs
  Bone/Blood: 4200
  Bone/Muscle: 3600
  Percent of the Administered Dose, Blood: 0.008% of the Administered Dose
  Percent of the Administered Dose, Kidneys: 0.36% of the Administered Dose
  Percent of the Administered Dose, Liver: 0.37% of the Administered Dose
  Percent of the Administered Dose, Skeleton: 59% of the Administered Dose
  Percent of the Administered Dose, Urine: 46% of the Administered Dose
[4]; 15 Min
  Bone/Blood: 7
  Bone/Muscle: 30
  Percent of the Administered Dose, Blood: 5.9% of the Administered Dose
  Percent of the Administered Dose, Kidneys: 1.745% of the Administered Dose
  Percent of the Administered Dose, Liver: 0.96% of the Administered Dose
  Percent of the Administered Dose, Skeleton: 48% of the Administered Dose
  Percent of the Administered Dose, Urine: 28% of the Administered Dose
[4]; 24 Hrs
  Bone/Blood: 6700
  Bone/Muscle: 2400
  Percent of the Administered Dose, Blood: 0.007% of the Administered Dose
  Percent of the Administered Dose, Kidneys: 0.25% of the Administered Dose
  Percent of the Administered Dose, Liver: 0.35% of the Administered Dose
  Percent of the Administered Dose, Skeleton: 52% of the Administered Dose
  Percent of the Administered Dose, Urine: 55% of the Administered Dose
[4]; 30 Min
  Bone/Blood: 20
  Bone/Muscle: 70
  Percent of the Administered Dose, Blood: 2.3% of the Administered Dose
  Percent of the Administered Dose, Kidneys: 0.805% of the Administered Dose
  Percent of the Administered Dose, Liver: 0.53% of the Administered Dose
  Percent of the Administered Dose, Skeleton: 53% of the Administered Dose
  Percent of the Administered Dose, Urine: 42% of the Administered Dose
[4]; 48 Hrs
  Bone/Blood: 8200
  Bone/Muscle: 2800
  Percent of the Administered Dose, Blood: 0.006% of the Administered Dose
  Percent of the Administered Dose, Kidneys: 0.29% of the Administered Dose
  Percent of the Administered Dose, Liver: 0.46% of the Administered Dose
  Percent of the Administered Dose, Skeleton: 60% of the Administered Dose
  Percent of the Administered Dose, Urine: 50% of the Administered Dose
[4]; 72 Hrs
  Bone/Blood: 7800
  Bone/Muscle: 3400
  Percent of the Administered Dose, Blood: 0.006% of the Administered Dose
  Percent of the Administered Dose, Kidneys: 0.22% of the Administered Dose
  Percent of the Administered Dose, Liver: 0.49% of the Administered Dose
  Percent of the Administered Dose, Skeleton: 57% of the Administered Dose
  Percent of the Administered Dose, Urine: 53% of the Administered Dose
[4]; throughout the course of the experiment
  clearance of the radioactivity from the skeletal system: no significant clearance of the radioactivity from the skeletal system

## O=P(O)(O)CN(CCO)CCN(CP(=O)(O)O)CP(=O)(O)O.[153Sm] [Example 9]
[1]
  Bone/Blood Ratio: 1300
  Bone/Muscle Ratio: 1300
  % Dose in Blood: 0.035 % Dose
  % Dose in Liver: 0.45 % Dose
  % Dose in Skeleton: 57 % Dose
  % Dose in Urine: 50 % Dose

## O=P(O)(O)CN(CCN(CP(=O)(O)O)CP(=O)(O)O)CP(=O)(O)O.[166Ho] [Example 12]
Bone marrow [5]
  suppression of the marrow: suppression of the marrow
Bone marrow [5]; vs nontreated control
  density of hemapoetic stem cells in marrow: significantly lower density of hemapoetic stem cells
  number of red blood cells in marrow: significantly higher number of red blood cells

## O=P(O)(O)CN(CCO)CCN(CP(=O)(O)O)CP(=O)(O)O.[159Gd] [Example 15]
[1]
  Bone/Blood Ratio: 335
  Bone/Muscle Ratio: 548
  % Dose in Blood: 0.14 % Dose
  % Dose in Liver: 0.57 % Dose
  % Dose in Muscle: 0.76 % Dose
  % Dose in Skeleton: 60 % Dose
